We go through five compounds from ChEMBL document CHEMBL5113461, “Improving the solubility and antileukemia activity of Wnt/β-catenin signaling inhibitors by disrupting molecular planarity” (Bioorg Med Chem, 2022).

In brackets after ≈: the same amount, converted by molar mass.

The nature of data set [1]: Aqueous solubility of the compound in PBS buffer at pH 7.4 incubated for 6 hrs by HPLC analysis. It counts as physicochemical. The following applies: pH 7.4, 6 h.
The test system of data set [2] is K562. Nature of the data set: cells. The following applies: Homo sapiens, K562, 48 h.
Data set [3] deals with K562. Kind of data set: Downregulation of beta-catenin levels in human K562 cells by Western blot analysis. It counts as functional, cell-based. The note with it: dose 0.1-10 µM, DDE = dose-dependent effect. On the technique in general: Immunoblotting shows a protein as a band on a membrane.
The test system of data set [4] is K562. Nature of the data set: Upregulation of axin-1 levels in human K562 cells by Western blot analysis. The following applies: dose 0.1-10 µM, DDE = dose-dependent effect. It counts as functional, cell-based.

For `Cc1c(C(=O)Nc2ccc3ccccc3n2)cnn1-c1ccccc1Br`, the solubility (as a rule, how much of the substance goes into solution per volume) in data set [1] amounted to 0.05 µg/mL (≈ 0.123 µM).
In data set [1], `Cc1ccccc1-n1nnc(C(=O)Nc2ccc3ccccc3n2)c1C` gave a solubility of 0.11 µg/mL (≈ 0.32 µM). Also, the IC50 (commonly the point on the concentration scale where inhibition reaches its midpoint) in the data set on K562 [2] was > 50 µM.
Turning to `Cc1nn(-c2ccccc2Br)c(C)c1C(=O)Nc1ccc2ccccc2n1`, the solubility in data set [1] was 5.9 µg/mL (≈ 14 µM).
On the same count and under the same terms, the value for `Cc1ccccc1-n1nc(C)c(C(=O)Nc2ccc3ccccc3n2)c1C` was 6.7 µg/mL (≈ 18.8 µM).
In the case of `CCc1ccccc1-n1nc(C)c(C(=O)Nc2ccc3ccccc3n2)c1C`, the Activity entry in the data set on K562 [3] and in the data set with K562 [4] was “Dde” in each case. In data set [1], this compound returned a solubility of 5.2 µg/mL (≈ 14 µM).
